According to patent US12077503B2, “Substituted cyclic amides and their use as herbicides” (FMC CORPORATION, priority 2015, dated 2024):

Legend:
Assay type in all cases: in vivo
[1] = system: barnyardgrass (Echinochloa crus-galli); experiment: Test G Pre-Emergence Protocol; conditions: Echinochloa crus-galli, pre-emergence, 312 h, evaluated after 13 days; for pest or weed control at 15.625 g/ha: 15.625 g ai/ha; for pest or weed control at 15.625 g/ha / pest or weed control at 250 g/ha: read-out: Barnyardgrass damage rating (100=total damage to plant; 0=no damage to plant); for pest or weed control at 62.5 g/ha: 62.5 g ai/ha, 100=total damage to plant, 0=no damage to plant, read-out: Barnyardgrass damage rating; for pest or weed control at 250 g/ha: 250 g ai/ha
In short: (§1)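 Visual injury (0–100) at day 13 after a single pre-emergence spray. Rates: 15.625, 62.5, 250 g/ha in acetone–water 50:50 with 0.5% Tween 20. Growth conditions: 24/16° C, 14 h light, 65% humidity.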

corn (Zea mays) [2] = experiment: Test G Pre-Emergence Protocol; conditions: Zea mays, pre-emergence, 312 h, evaluated after 13 days; for plant injury at 15.625 g/ha: 15.625 g ai/ha; for plant injury at 15.625 g/ha / plant injury at 250 g/ha: read-out: Corn damage rating (100=total damage to plant; 0=no damage to plant); for plant injury at 62.5 g/ha: 62.5 g ai/ha, 100=total damage to plant, 0=no damage to plant, read-out: Corn damage rating; for plant injury at 250 g/ha: 250 g ai/ha
In short: as §1

[3] = system: giant foxtail (Setaria faberi); experiment: Test G Pre-Emergence Protocol; conditions: Setaria faberi, pre-emergence, 312 h, evaluated after 13 days; for pest or weed control at 15.625 g/ha: 15.625 g ai/ha; for pest or weed control at 15.625 g/ha / pest or weed control at 250 g/ha: read-out: Foxtail, Giant damage rating (100=total damage to plant; 0=no damage to plant); for pest or weed control at 62.5 g/ha: 62.5 g ai/ha, 100=total damage to plant, 0=no damage to plant, read-out: Foxtail, Giant damage rating; for pest or weed control at 250 g/ha: 250 g ai/ha
In short: as §1

[4] = system: ivy-leaved morning glory (Ipomoea hederacea); experiment: Test G Pre-Emergence Protocol; conditions: Ipomoea, pre-emergence, 312 h, evaluated after 13 days; for pest or weed control at 15.625 g/ha: 15.625 g ai/ha; for pest or weed control at 15.625 g/ha / pest or weed control at 250 g/ha: read-out: Morningglory, Ivy-leaved damage rating (100=total damage to plant; 0=no damage to plant); for pest or weed control at 62.5 g/ha: 62.5 g ai/ha, 100=total damage to plant, 0=no damage to plant, read-out: Morningglory, Ivy-leaved damage rating; for pest or weed control at 250 g/ha: 250 g ai/ha
In short: as §1

[5] = system: redroot pigweed (Amaranthus retroflexus); experiment: Test G Pre-Emergence Protocol; conditions: Amaranthus retroflexus, pre-emergence, 312 h, evaluated after 13 days; for pest or weed control at 15.625 g/ha: 15.625 g ai/ha; for pest or weed control at 15.625 g/ha / pest or weed control at 250 g/ha: read-out: Pigweed, Redroot damage rating (100=total damage to plant; 0=no damage to plant); for pest or weed control at 62.5 g/ha: 62.5 g ai/ha, 100=total damage to plant, 0=no damage to plant, read-out: Pigweed, Redroot damage rating; for pest or weed control at 250 g/ha: 250 g ai/ha
In short: as §1

[6] = system: velvetleaf (Abutilon theophrasti); experiment: Test G Pre-Emergence Protocol; conditions: Abutilon theophrasti, pre-emergence, 312 h, evaluated after 13 days; for pest or weed control at 15.625 g/ha: 15.625 g ai/ha; for pest or weed control at 15.625 g/ha / pest or weed control at 250 g/ha: read-out: Velvetleaf damage rating (100=total damage to plant; 0=no damage to plant); for pest or weed control at 62.5 g/ha: 62.5 g ai/ha, 100=total damage to plant, 0=no damage to plant, read-out: Velvetleaf damage rating; for pest or weed control at 250 g/ha: 250 g ai/ha
In short: as §1

[7] = system: barnyardgrass (Echinochloa crus-galli); experiment: Test G Post-Emergence Protocol; conditions: Echinochloa crus-galli, post-emergence, 312 h, read-out: Barnyardgrass damage rating; for pest or weed control at 15.625 g/ha: 15.625 g ai/ha, evaluated after 13 days (100=total damage to plant; 0=no damage to plant); for pest or weed control at 62.5 g/ha: 62.5 g ai/ha; for pest or weed control at 62.5 g/ha / pest or weed control at 250 g/ha: evaluated after 13 days, 100=total damage to plant, 0=no damage to plant; for pest or weed control at 250 g/ha: 250 g ai/ha
In short: (§2)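 Eight days post-sowing, plants received a spray of test compound (acetone/water 50:50, 0.5% Tween 20) at 15.625, 62.5 or 250 g/ha. Glasshouse regime thereafter: 24/16 °C, 14 h light, 65% humidity. Assessment after 13 days on a 0–100 damage scale.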

corn (Zea mays) [8] = experiment: Test G Post-Emergence Protocol; conditions: Zea mays, post-emergence, 312 h, read-out: Corn damage rating; for plant injury at 15.625 g/ha: 15.625 g ai/ha, evaluated after 13 days (100=total damage to plant; 0=no damage to plant); for plant injury at 62.5 g/ha: 62.5 g ai/ha; for plant injury at 62.5 g/ha / plant injury at 250 g/ha: evaluated after 13 days, 100=total damage to plant, 0=no damage to plant; for plant injury at 250 g/ha: 250 g ai/ha
In short: as §2

[9] = system: giant foxtail (Setaria faberi); experiment: Test G Post-Emergence Protocol; conditions: Setaria faberi, post-emergence, 312 h, read-out: Foxtail, Giant damage rating; for pest or weed control at 15.625 g/ha: 15.625 g ai/ha, evaluated after 13 days (100=total damage to plant; 0=no damage to plant); for pest or weed control at 62.5 g/ha: 62.5 g ai/ha; for pest or weed control at 62.5 g/ha / pest or weed control at 250 g/ha: evaluated after 13 days, 100=total damage to plant, 0=no damage to plant; for pest or weed control at 250 g/ha: 250 g ai/ha
In short: as §2

[10] = system: ivy-leaved morning glory (Ipomoea hederacea); experiment: Test G Post-Emergence Protocol; conditions: Ipomoea, post-emergence, 312 h, read-out: Morningglory, Ivy-leaved damage rating; for pest or weed control at 15.625 g/ha: 15.625 g ai/ha, evaluated after 13 days (100=total damage to plant; 0=no damage to plant); for pest or weed control at 62.5 g/ha: 62.5 g ai/ha; for pest or weed control at 62.5 g/ha / pest or weed control at 250 g/ha: evaluated after 13 days, 100=total damage to plant, 0=no damage to plant; for pest or weed control at 250 g/ha: 250 g ai/ha
In short: as §2

[11] = system: redroot pigweed (Amaranthus retroflexus); experiment: Test G Post-Emergence Protocol; conditions: Amaranthus retroflexus, post-emergence, 312 h, read-out: Pigweed, Redroot damage rating; for pest or weed control at 15.625 g/ha: 15.625 g ai/ha, evaluated after 13 days (100=total damage to plant; 0=no damage to plant); for pest or weed control at 62.5 g/ha: 62.5 g ai/ha; for pest or weed control at 62.5 g/ha / pest or weed control at 250 g/ha: evaluated after 13 days, 100=total damage to plant, 0=no damage to plant; for pest or weed control at 250 g/ha: 250 g ai/ha
In short: as §2

[12] = system: velvetleaf (Abutilon theophrasti); experiment: Test G Post-Emergence Protocol; conditions: Abutilon theophrasti, post-emergence, 312 h, read-out: Velvetleaf damage rating; for pest or weed control at 15.625 g/ha: 15.625 g ai/ha, evaluated after 13 days (100=total damage to plant; 0=no damage to plant); for pest or weed control at 62.5 g/ha: 62.5 g ai/ha; for pest or weed control at 62.5 g/ha / pest or weed control at 250 g/ha: evaluated after 13 days, 100=total damage to plant, 0=no damage to plant; for pest or weed control at 250 g/ha: 250 g ai/ha
In short: as §2

COc1c(F)cc(C2CN(C)C(=O)C2C(=O)Nc2cccc(F)c2F)cc1Cl (stereo not drawn) [Compound 1709]
pest or weed control at 15.625 g/ha [1]: 60%
pest or weed control at 62.5 g/ha [1]: 70%
pest or weed control at 250 g/ha [1]: 80%
plant injury at 15.625 g/ha (corn (Zea mays) [2]): 0%
plant injury at 62.5 g/ha (corn (Zea mays) [2]): 70%
plant injury at 250 g/ha (corn (Zea mays) [2]): 90%
pest or weed control at 15.625 g/ha [3]: 70%
pest or weed control at 62.5 g/ha [3]: 80%
pest or weed control at 250 g/ha [3]: 90%
pest or weed control at 15.625 g/ha [4]: 0%
pest or weed control at 62.5 g/ha [4]: 10%
pest or weed control at 250 g/ha [4]: 20%
pest or weed control at 15.625 g/ha [5]: 0%
pest or weed control at 62.5 g/ha [5]: 20%
pest or weed control at 250 g/ha [5]: 50%
pest or weed control at 15.625 g/ha [6]: 0%
pest or weed control at 62.5 g/ha [6]: 20%
pest or weed control at 250 g/ha [6]: 30%
pest or weed control at 15.625 g/ha [7]: 30%
pest or weed control at 62.5 g/ha [7]: 70%
pest or weed control at 250 g/ha [7]: 80%
plant injury at 15.625 g/ha (corn (Zea mays) [8]): 30%
plant injury at 62.5 g/ha (corn (Zea mays) [8]): 60%
plant injury at 250 g/ha (corn (Zea mays) [8]): 80%
pest or weed control at 15.625 g/ha [9]: 70%
pest or weed control at 62.5 g/ha [9]: 80%
pest or weed control at 250 g/ha [9]: 80%
pest or weed control at 15.625 g/ha [10]: 10%
pest or weed control at 62.5 g/ha [10]: 50%
pest or weed control at 250 g/ha [10]: 70%
pest or weed control at 15.625 g/ha [11]: 20%
pest or weed control at 62.5 g/ha [11]: 10%
pest or weed control at 250 g/ha [11]: 30%
pest or weed control at 15.625 g/ha [12]: 20%
pest or weed control at 62.5 g/ha [12]: 10%
pest or weed control at 250 g/ha [12]: 50%

COc1cc(C2CN(C)C(=O)C2C(=O)Nc2cccc(F)c2F)cc(Cl)c1OC (stereo not drawn) [Compound 1704]
pest or weed control at 15.625 g/ha [1]: 40%
pest or weed control at 62.5 g/ha [1]: 70%
pest or weed control at 250 g/ha [1]: 80%
plant injury at 15.625 g/ha (corn (Zea mays) [2]): 0%
plant injury at 62.5 g/ha (corn (Zea mays) [2]): 50%
plant injury at 250 g/ha (corn (Zea mays) [2]): 80%
pest or weed control at 15.625 g/ha [3]: 50%
pest or weed control at 62.5 g/ha [3]: 80%
pest or weed control at 250 g/ha [3]: 80%
pest or weed control at 15.625 g/ha [4]: 0%
pest or weed control at 62.5 g/ha [4]: 0%
pest or weed control at 250 g/ha [4]: 30%
pest or weed control at 15.625 g/ha [5]: 0%
pest or weed control at 62.5 g/ha [5]: 20%
pest or weed control at 250 g/ha [5]: 0%
pest or weed control at 15.625 g/ha [6]: 0%
pest or weed control at 62.5 g/ha [6]: 0%
pest or weed control at 250 g/ha [6]: 10%
pest or weed control at 15.625 g/ha [7]: 40%
pest or weed control at 62.5 g/ha [7]: 70%
pest or weed control at 250 g/ha [7]: 80%
plant injury at 15.625 g/ha (corn (Zea mays) [8]): 0%
plant injury at 62.5 g/ha (corn (Zea mays) [8]): 20%
plant injury at 250 g/ha (corn (Zea mays) [8]): 80%
pest or weed control at 15.625 g/ha [9]: 70%
pest or weed control at 62.5 g/ha [9]: 80%
pest or weed control at 250 g/ha [9]: 80%
pest or weed control at 15.625 g/ha [10]: 30%
pest or weed control at 62.5 g/ha [10]: 20%
pest or weed control at 250 g/ha [10]: 70%
pest or weed control at 15.625 g/ha [11]: 0%
pest or weed control at 62.5 g/ha [11]: 10%
pest or weed control at 250 g/ha [11]: 10%
pest or weed control at 15.625 g/ha [12]: 0%
pest or weed control at 62.5 g/ha [12]: 0%
pest or weed control at 250 g/ha [12]: 20%
